We go through 11 compounds from ChEMBL document CHEMBL1201862, “PubChem BioAssay data set” (2004).

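Briefly, cells in 96-well plates were exposed to five compound concentrations for 48 h, and endpoints were estimated by linear interpolation. At the GI50, growth is halved.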 Activity calls are given as the source filed them. No stated cut-off is given here; in the data, active = GI50 up to about 1.1 µM and inactive = higher.

Holding throughout (test): NCI-60 cell line screen, 48 h
The test system of experiment [1] is 786-0.
In experiment [2] the test system is A498.
The test system of experiment [3] is HOP-62.
Experiment [4] deals with HT-29.
Experiment [5] deals with K562.
The test system of experiment [6] is M14.
Experiment [7] relates to MDA-MB-231.
The test system of experiment [8] is Malme-3M.
Experiment [9] concerns NCI/ADR-RES.
Experiment [10] has as its system PC-3.
Experiment [11] deals with SF-268.
The subject of experiment [12] is SK-MEL-28.
The subject of experiment [13] is SR.
For experiment [14], the system named is U-251.
The test system of experiment [15] is HOP-92.
Experiment [16] concerns NCI-H460.
The subject of experiment [17] is NCI-H522.
Experiment [18] concerns OVCAR-4.
The subject of experiment [19] is SNB-75.
The subject of experiment [20] is HCC 2998.

`O=C(c1ccc(Cl)cc1)N(C(=S)OCc1ccccn1)c1ccccc1`: the GI50 in experiment [1] was 83.2 µM (inactive); in experiment [2], > 100 µM (inactive); in experiment [3], 16.6 µM (inactive); in experiment [4], 55 µM (inactive); in [5], 48.1 µM (inactive); in experiment [6] it was 65.3 µM (inactive). The GI50 in experiment [7] was > 100 µM (inactive); in experiment [8] it was 61.1 µM (inactive); in [9], 39 µM (inactive); in experiment [10], 45.1 µM (inactive); in [11], > 100 µM (inactive); in [12] it was > 100 µM (inactive). Also, the values for the GI50 in experiment [13] and in experiment [14] were > 100 µM (inactive) and 53.6 µM (inactive), respectively.
`COc1ccc(C2=NN(C(=O)c3cccnc3)C(O)(c3cc(F)c(Cl)cc3Cl)C2)cc1OC` (stereo not drawn): the GI50 in experiment [1] is 22 µM (inactive); in experiment [3] it was 19 µM (inactive); in experiment [15] it was 14.1 µM (inactive); in [4] it was 12.3 µM (inactive); in experiment [5] it was 17.4 µM (inactive); in experiment [6] it was 15.8 µM (inactive). Besides, the GI50 was 13.9 µM (inactive) in [7]; 22.6 µM (inactive) in experiment [8]; 15.2 µM (inactive) in [16]; 13.8 µM (inactive) in experiment [17]; 14.8 µM (inactive) in experiment [9]; 15.6 µM (inactive) in [18]. Also, the GI50 is 12.6 µM (inactive) in [10]; 17.3 µM (inactive) in experiment [11]; 19.5 µM (inactive) in experiment [12]; 23.5 µM (inactive) in experiment [19]; 7.28 µM (inactive) in [13]; 13.8 µM (inactive) in experiment [14].
Regarding `CO/C=C(/C(=O)OC)[C@@H]1C[C@@H]1c1ccc2ccccc2c1`, the GI50 is 33.5 µM (inactive) in [1]; 39.3 µM (inactive) in experiment [2]; 20.4 µM (inactive) in experiment [20]; 45.4 µM (inactive) in experiment [3]; 19.8 µM (inactive) in experiment [15]; 19.1 µM (inactive) in [4]. Moreover, the GI50 in experiment [5] was 23 µM (inactive); in experiment [6], 22.8 µM (inactive); in experiment [7], 26.3 µM (inactive); in experiment [8], 20.2 µM (inactive); in [16], 27.2 µM (inactive); in experiment [17] it was 12 µM (inactive). For the same compound, the GI50 in [9] is 26.4 µM (inactive); in experiment [18], 16.9 µM (inactive); in experiment [10] it was 27.7 µM (inactive); in experiment [11], 24.9 µM (inactive); in experiment [12], 23.4 µM (inactive); in experiment [13], 13.2 µM (inactive). Also, the GI50 in [14] is 27.4 µM (inactive).
In the case of `CO[C@@]12[C@H](COC(N)=O)C3=C(C(=O)C(C)=C(N)C3=O)N1C[C@@H]1N[C@@H]12` [MITOMYCIN], the GI50 in [2] was 0.714 µM (active); in experiment [20] it was 0.614 µM (active); in [15] it was 3.49 µM (inactive); in experiment [4], 0.759 µM (active); in experiment [5], 2.03 µM (inactive); in [7], 5.71 µM (inactive). The GI50 in experiment [8] is 0.796 µM (active); in [17] it was 0.667 µM (active); in experiment [9], 4.74 µM (inactive); in experiment [18], 3.56 µM (inactive); in experiment [10], 2.24 µM (inactive); in [12], 1.75 µM (inactive). The GI50 in [13] is 0.122 µM (active).
For the compound `CC(=O)On1c(-c2ccccc2-c2nc3ccccc3n2OC(C)=O)nc2ccccc21`, the GI50 in experiment [1] is 46.6 µM (inactive); in experiment [20], 33.4 µM (inactive); in experiment [3], 97.9 µM (inactive); in experiment [5] it was 13.9 µM (inactive); in experiment [6], 33.8 µM (inactive); in [7], 42.8 µM (inactive). The GI50 was 15.1 µM (inactive) in experiment [8]; 18.5 µM (inactive) in [17]; 79.3 µM (inactive) in experiment [9]; 4.43 µM (inactive) in [10]; 23 µM (inactive) in [11]; 29.3 µM (inactive) in experiment [12]. Moreover, the GI50 in experiment [19] is 35.2 µM (inactive); in experiment [13], 19.1 µM (inactive); in experiment [14], 12.8 µM (inactive).
As to `COC(=O)CCc1ccc2c(c1)[C@H](C(=O)OC)[C@@H](c1ccc(O)cc1)O2`, the GI50 in experiment [1] is > 10 µM (inactive); in experiment [2] it was > 100 µM (inactive); in experiment [20], > 100 µM (inactive); in [3], > 100 µM (inactive); in [15] it was > 100 µM (inactive); in [4] it was > 100 µM (inactive). Further, the GI50 in experiment [5] is 61.1 µM (inactive); in [6] it was > 100 µM (inactive); in [7], > 100 µM (inactive); in experiment [8] it was > 100 µM (inactive); in experiment [16] it was 58.9 µM (inactive); in experiment [17], 75.9 µM (inactive). For the same compound, the GI50 in experiment [9] was > 100 µM (inactive); in experiment [18] it was > 100 µM (inactive); in experiment [10], > 100 µM (inactive); in experiment [11], > 100 µM (inactive); in experiment [12], > 100 µM (inactive); in experiment [13], 93.5 µM (inactive). Also, the GI50 in experiment [14] is > 100 µM (inactive).
With `C(=N\c1ccc(-c2cc(-c3ccccc3)nc3ccc4ccccc4c23)cc1)/c1ccccc1`, the GI50 in [1] is 19.5 µM (inactive); in [2], 26.7 µM (inactive); in experiment [20], 11.4 µM (inactive); in experiment [3], 20.9 µM (inactive); in experiment [4], 7.87 µM (inactive); in [5] it was 4.79 µM (inactive). For the same compound, the GI50 is 18.1 µM (inactive) in experiment [6]; 11.2 µM (inactive) in [7]; 30.5 µM (inactive) in experiment [8]; 19.9 µM (inactive) in experiment [16]; 28.5 µM (inactive) in experiment [9]; 2.39 µM (inactive) in experiment [18]. Moreover, the GI50 is 13.2 µM (inactive) in [10]; 7.48 µM (inactive) in experiment [11]; 14.1 µM (inactive) in experiment [12]; 1.18 µM (inactive) in experiment [19]; 10.2 µM (inactive) in experiment [13]; 36.5 µM (inactive) in experiment [14].
On to `NC(=O)Cc1nc2c(N)ncnc2n1C1OC(CO)C(O)C1O` (stereo not drawn), for which the GI50 in [1], in experiment [2], in [20], in [3], in [15] and in experiment [4] was > 100 µM (inactive) in each case. In addition, the GI50 in experiment [5], in experiment [6], in experiment [7], in experiment [8], in [16] and in experiment [17] was > 100 µM (inactive) in each case. For the same compound, the GI50 in experiment [9], in [18], in [10], in [11], in [12] and in experiment [13] was > 100 µM (inactive) each time. Further, in experiment [14], the GI50 was > 100 µM (inactive).
Take `CC1(C)OCC(C2OC3OC(C)(C)OC3C2c2ccccc2)O1` (stereo not drawn): the GI50 in experiment [1] was 58.6 µM (inactive); in experiment [20], > 100 µM (inactive); in experiment [3], 49 µM (inactive); in [15], 17.6 µM (inactive); in [4], 39.6 µM (inactive); in [5], 30.2 µM (inactive). Besides, the GI50 is 33.7 µM (inactive) in [6]; 55 µM (inactive) in experiment [7]; 42.2 µM (inactive) in experiment [8]; 39.8 µM (inactive) in experiment [16]; 37.7 µM (inactive) in [17]; 31.1 µM (inactive) in experiment [9]. In addition, the GI50 in experiment [18] was 41.4 µM (inactive); in experiment [10], 24.3 µM (inactive); in experiment [11], 38.4 µM (inactive); in [12], 41.5 µM (inactive); in experiment [19], 50.6 µM (inactive); in [13], 28.8 µM (inactive). The GI50 in experiment [14] was 78 µM (inactive).
`C#CCCCC(=C)C[C@H](OCc1ccccc1)[C@H]1OC(=O)[C@@H]1C`: the GI50 was > 100 µM (inactive) in experiment [2]; > 100 µM (inactive) in experiment [20]; > 100 µM (inactive) in experiment [3]; 37.6 µM (inactive) in experiment [15]; 81.3 µM (inactive) in experiment [6]; 13.2 µM (inactive) in experiment [7]. Also, the GI50 in experiment [16] is > 100 µM (inactive); in [9], 40.9 µM (inactive); in experiment [18] it was > 100 µM (inactive); in experiment [10], 48.2 µM (inactive); in experiment [11], > 100 µM (inactive); in [12] it was > 100 µM (inactive). The GI50 is > 100 µM (inactive) in experiment [19], 44.5 µM (inactive) in experiment [13] and > 100 µM (inactive) in experiment [14].
As to `C/C(=C1\C(=O)C(c2ccccc2)N(c2ccccc2)C1=O)c1ccc(Cl)cc1` (stereo not drawn), the GI50 in experiment [1] was 18.3 µM (inactive); in experiment [2], 16.7 µM (inactive); in [20] it was 36.6 µM (inactive); in [3] it was 23.1 µM (inactive); in [15], 3.17 µM (inactive); in experiment [4], 17.4 µM (inactive). In addition, the GI50 was 30.1 µM (inactive) in experiment [5]; 19.8 µM (inactive) in experiment [6]; 22.3 µM (inactive) in [7]; 19.7 µM (inactive) in [8]; 29.6 µM (inactive) in experiment [16]; 18.2 µM (inactive) in experiment [17]. Moreover, the GI50 in experiment [9] was 29.1 µM (inactive); in experiment [18] it was 21.5 µM (inactive); in experiment [10], 14.3 µM (inactive); in [11] it was 18.7 µM (inactive); in experiment [12] it was 16.3 µM (inactive); in [13], 20.6 µM (inactive). Besides, the GI50 in experiment [14] was 15.9 µM (inactive).
